Row | SMILES | melting point [°C]
1 | Nc1ccc2c(c1)c(-c1ccc(CO)o1)nn2Cc1ccccc1 | 156
2 | Cn1c(-c2ccc(C=Cc3ccc(-c4ccccc4)cc3)cc2)cc2ccccc21 | 254
3 | O=C1c2cccc(NC(=S)Nc3cccc4c3C3CC5(CCN3C4=O)SCCS5)c2C2CC3(CCN12)SCCS3 (stereo not drawn) | 188
4 | O=C(O)CS(=O)(=O)Nc1ccc(F)c(C(F)(F)F)c1 | 138 to 140
5 | CN1CC=C(c2c[nH]c3ccc(Oc4ccccn4)cc23)CC1 | 240 to 245
6 | Cc1cnc(-c2ccc(Br)cc2)nc1-c1ccc(Br)cc1 | 136 to 137
7 | CN1C=CC2=C(C=CCC2)CC1=O | 81 to 82
8 | Cc1ccc(S(=O)(=O)N2CCCC2C(=O)NC(Cc2ccc(OCC(=O)OCc3ccccc3)cc2)C(=O)O)cc1 (stereo not drawn) | 79 to 81
9 | CCCCCCCCC(CCC(=O)O)(CCC(=O)O)C(C)=O | 69 to 71
10 | O=Cc1ccc(-c2ncn(-c3ccc(OC(F)(F)F)cc3)n2)cc1 | 137 to 140
11 | Cc1nc(N2CCN(Cc3ccccn3)C2=O)sc1C(=O)NCc1cccnc1 | 58 to 61
12 | Cc1nc(C)c(Cl)c(NCc2ccc(OCCn3c([N+](=O)[O-])cnc3C)c(Cl)n2)n1 | 206 to 208
13 | O=C1NC(=O)c2c1c(-c1ccccc1)cc1c2c2cc(O)ccc2n1CCCn1ccnc1 | 309 to 311
14 | [N-]=[N+]=NCc1cc(=O)c(OCc2ccccc2)cn1Cc1ccccc1 | 120
15 | COc1cc(-c2nn(C)c(C(F)(F)F)c2Br)c(F)cc1N | 85 to 86
16 | O=C(Nc1ccc(C#CC2(O)CN3CCC2CC3)cc1)C(F)(F)F (stereo not drawn) | 222 to 223
17 | CCCC(C)(Br)C(=O)Nc1ccc(C(C)C)cc1 (stereo not drawn) | 87.2 to 88.2
18 | C=CS(=O)(=O)c1ccc(C)cc1 | 66
19 | CC1(C)c2ccc([N+](=O)[O-])cc2C(NC(=O)Nc2ccccc2)C1O (stereo not drawn) | 194 to 195
20 | Cc1noc(C)c1-c1ccccc1C=NC(c1ccccc1)c1ccccc1 | 165 to 167

Row | SMILES | melting point [°C]
21 | CCOc1cc(Cc2cnc(N)nc2N)cc2c1OC(C)(C)C=C2Cl | 197 to 199
22 | CCCC(=O)n1nc2c(c1NC)c(=O)n(CCC)c(=O)n2Cc1ccccc1 | 138 to 139
23 | OCCOc1ccsc1 | 38 to 39
24 | CC1CCc2ccc(OCC(O)CCl)cc2O1 (stereo not drawn) | 70 to 72
25 | OC[C@H](O)CN1CCC[C@@H](Nc2nccc(-c3c(-c4cccc(O)c4)nc4sccn34)n2)C1 | 185 to 187
26 | C[C@H](NC(=O)C(CSC(=O)c1ccccc1)SC(=O)c1ccccc1)C(=O)N1CCC[C@H]1C(=O)O (stereo partly drawn) | 185 to 186
27 | O=C(O)CCCCCCCCCCCCCCCI | 71 to 72
28 | CCOC(=O)C(C(=O)OCC)C(=O)c1ccc(C(F)(F)F)cc1[N+](=O)[O-] | 59 to 60
29 | CC(C)(C)OC(=O)Nc1ccc(-c2ccccc2F)cc1NC(=O)CC(=O)c1cccc(-n2ccnc2)c1 | 50 to 58
30 | O=[N+]([O-])c1c(NCCO)cc(Cl)cc1NCCO | 154
31 | O=C(c1c(C2CC2)nn2ccccc12)C1CC1 | 102 to 104
32 | CC(Cc1c[nH]c2ccccc12)(NC(=O)OC1C2CC3CC(C2)CC1C3)C(=O)NCC(CSCC(=O)O)c1ccccc1 (stereo not drawn) | 78 to 93
33 | CSc1ccccc1NC(=O)Nc1ccc(N2CCN(C(=O)Nc3ccc(OCCO)cc3C(F)(F)F)CC2)cc1 | 115 to 116
34 | O=S(=O)(N=CN1CCOCC1)c1cc(Br)cc(Br)c1 | 195 to 197
35 | NC(=S)c1ncccc1O | 150 to 151
36 | COc1ccc(CC(C)NC(=O)N(C)O)cc1OC (stereo not drawn) | 78 to 80
37 | CCc1nc(O)cc(O)n1 | 312 to 315
38 | O=C(O)Cn1c(=O)c(=O)[nH]c2ccc3ccc(-n4ccc(CNC(=O)Nc5ccccc5)c4)cc3c21 | > 230
39 | CCC(O)c1ccc(-c2cccc(COc3ccc(CO)c(CO)c3)c2)c(C)c1 (stereo not drawn) | 78
40 | CC(C)(C)c1ccc(C(=O)CCCCCC2CCCCC2)cc1NC(=O)CC1c2ccccc2Oc2ccccc21 | 134

Row | SMILES | melting point [°C]
41 | O=C1NC(c2ccccc2)Oc2ccccc21 (stereo not drawn) | 157 to 160
42 | CCOC(=O)c1sc(OCC)nc1C(F)(F)F | 30.5 to 31.5
43 | CCCCc1nc2ccc(N(C)C(=O)NC)cc2n1Cc1ccc(-c2ccccc2C(=O)O)cc1 | 163 to 165
44 | CC(=O)N1CCS(=O)c2ccccc2C1 (stereo not drawn) | 156 to 157
45 | Cc1cc(C)c(/C=C2\C(=O)N(CN3CCN(C)CC3)c3ccccc32)[nH]1 | 160 to 164
46 | O=C(Nc1ccc(C2CC(F)(F)C2(F)Cl)cc1)Nc1nonc1-c1ccccc1 (stereo not drawn) | 201
47 | COc1c(-c2cc3c(s2)CCC(CO)=C3)ccc2c(=O)c(C(=O)O)cn(C3CC3)c12 | 205 to 206
48 | CCOC(=O)C1=C(C(OC)OC)Nc2nccn2C1c1cccc([N+](=O)[O-])c1 (stereo not drawn) | 190 to 191
49 | O=[N+]([O-])c1cc(Cn2nnnc2Sc2ccccc2)cc([N+](=O)[O-])c1 | 156 to 158
50 | CO[C@H]1O[C@@H](C)[C@H]2[C@@H]1C[C@H]1CCCC[C@@H]1[C@H]2CS(=O)(=O)c1ccccc1 | 136 to 137
51 | CCCCCCCCN(c1c([O-])[c+](N(CCCCCCCC)C2CC(C)(C)NC(C)(C)C2)[c+]1[O-])C1CC(C)(C)NC(C)(C)C1 | 171 to 175
52 | OCCC1CCc2cc3ccccc3n2C1 (stereo not drawn) | 70 to 72
53 | O=[N+]([O-])c1cncnc1O | 300
54 | CCCCCN(CC(=O)OC(C)(C)C)C(=O)C(CCC(=O)OC)CS(=O)(=O)c1ccc2ccccc2c1 (stereo not drawn) | 85 to 87
55 | CC[C@H]1COC(=O)N1c1nc(-c2ccc(Br)cc2)cs1 | 138 to 140
56 | CCCCc1cn(-c2c(C)cccc2Cl)c(=O)n1Cc1ccc(-c2ccccc2-c2nnn[nH]2)cc1 | 163 to 164
57 | NC(=O)c1nc2cnc3ccccc3c2[nH]1 | 326 to 328
58 | O=S(=O)(Nc1nc2ncccn2n1)c1ccccc1Cl | 254 to 256
59 | Cc1ccc(C2c3c(C)c(NC(=O)OC(C)(C)C)c(C)c(C)c3OC2(C)C)cc1 (stereo not drawn) | 124 to 125

The remaining lines, values ahead:

Row | melting point [°C] | SMILES
60 | 149 to 150 | CCOC(=O)NC1(c2ccc(C(C)C)cc2OC)C(=O)c2ccccc2C1=O
61 | 97 to 98 | CC1(CCC#N)N=C(c2ccc(Cl)cc2)OC1=O (stereo not drawn)
62 | 164 to 167 | CCCC1=C(C(=O)OCC)C(c2cc(F)ccc2OC)c2c[nH]nc2N1 (stereo not drawn)
63 | 53 to 55 | FC(F)(F)Sc1cc(C(F)(F)F)[nH]c1-c1ccc(Cl)cc1
64 | 221 | COc1ccccc1-c1cc2c(Nc3cccc(Cl)c3)ncnc2[nH]1
65 | 174 to 176 | CCCn1cc(C(=O)NCc2ccc(Cl)cc2)c(=O)c2cc(CN3CCOCC3)sc21
66 | 123 to 124 | C=C(C)c1ccc(CNC(=O)N2CCN(c3ncnc4cc(OC)c(OC)cc34)CC2)cc1
67 | 272 | NS(=O)(=O)c1cccc(NC(=O)c2cnn3c(C(F)F)cc(-c4ccc(C(F)(F)F)c(Cl)c4)nc23)c1
68 | 130 | COc1cc2ncn(CCO)c(=O)c2cc1OC
69 | 290 to 295 | COc1cc2ncc(C#N)c(Nc3ccc4[nH]ncc4c3)c2cc1OC
70 | 129 to 130 | COc1ccc(C(=CC=O)c2ccc(OC)c(OC)c2)cc1OC
71 | 154 to 159 | CC1=C(c2ccccc2)C(=O)N(C(C)(C)c2cc(Cl)c(F)c(Cl)c2)CC1
72 | 224 | CC1(C)CCC(C)(C)c2cc(C(=O)c3ccc4cc(C(=O)O)ccc4c3)ccc21
73 | 167 to 168 | Cn1cc(CC(=O)O)c2cc(-c3ccc(C(F)(F)F)cc3)ccc21
74 | 200 | CCCc1c(-c2cc(=O)c3c(O)cc(O)cc3o2)ccc(OC)c1O
75 | 49 to 50 | CCOC(=O)c1cc(Cl)c(OCCCc2cc(C)no2)c(Cl)c1
76 | 178 to 179 | CC#CC1(C2CC2)OC(=O)Nc2ccc(-c3cccc(Cl)c3)cc21 (stereo not drawn)
77 | 179 to 181 | Cc1cccc(COc2cccnc2NC(=N)Nc2ccc(Cl)cc2)c1F
78 | 143 | CC(C)(C)[N+]([O-])=Cc1cc(Cl)ccc1O
79 | 74 to 75 | COc1cc(CC#N)ccc1OCC#Cc1ccccc1

Row | melting point [°C] | SMILES
80 | 266 to 269 | COc1ccc(-c2c3c(cc4ccc5c(c24)OCO5)C(=O)NC3)cc1
81 | 98 | COc1ccc(C(=O)c2ccc(Cl)cc2Cl)cc1Cl
82 | 73 | COc1cc(CCC(=O)C2=C(Cl)CCC2)cc(OS(=O)(=O)c2ccc(C)cc2)c1OC
83 | 347 to 349 | Cc1ccccc1C=C1CCn2c1nc1ccc(C(N)=O)cc1c2=O
84 | 123 to 125 | OC(CNc1ccc(Cl)cc1)Cn1ccnc1 (stereo not drawn)
85 | 96 to 97 | COC(=O)c1c(F)c(F)c(NCc2ccccc2)c(F)c1F
86 | 190 to 191 | O=S(=O)(Nc1cccc(Oc2cccc3cccnc23)c1)c1ccc(Cl)cc1
87 | 190 to 193 | CC1(c2cc(NC(=O)c3ccc(Cl)cn3)ccc2F)N=C(N)COCC1(F)F (stereo not drawn)
88 | 176 to 177 | Cc1cc(C(=O)N2Cc3cccn3Cc3ccccc32)ccc1C1=CC(=O)CCC1
89 | 192 to 194 | Cn1ccc2ncnc(Oc3ccc(NC(=O)Nc4cccc(C(F)(F)F)c4)c(Cl)c3)c21
90 | 221 to 222 | CCOC(=O)c1c(-c2ccc(F)cc2)c2nccnc2c(=O)n1C
91 | 185 | COc1ccc(OC)c(CNC(=O)n2cc(F)c(=O)[nH]c2=O)c1
92 | 181 to 182 | C[C@H]1c2cc(F)ccc2-c2ccc(F)cc2N1S(=O)(=O)c1cccc(O)c1
93 | 131 to 132 | COc1ccc(-c2nnn(-c3ccc(C(F)(F)F)cc3Cl)c2CO)cc1
94 | 262 to 264 | CC1(C)Oc2c(ccc3oc(C(=O)O)cc(=O)c23)-c2cc(Cl)ccc21
95 | 90 | CC(=O)Oc1ccc2cccc(OS(=O)(=O)C(F)(F)F)c2n1
96 | 186 to 188 | O=C(Nc1cccc(-c2nnn[nH]2)c1)Oc1ccc([N+](=O)[O-])cc1
97 | 108 to 115 | COc1ccc2cc([C@H](C)C(=O)OCCN(C)C(=O)c3ccc(CO[N+](=O)[O-])cc3)ccc2c1
98 | 140 | COc1ccc2ccc(OS(=O)(=O)C(F)(F)F)c(-c3nnc(Cl)c4ccccc34)c2c1

Reference: a melting point compilation (Tetko et al.; mined from patent text by program, amines drawn as free bases though some values may be those of a salt)
